In patent publication US20070128217A1 (priority 2003, published 2007):

Columns and labels:
[1] = system: control sera (pooled serum of ten healthy LUMC hospital workers; commercial negative donor pooled serum from the Dutch bloodbank); assay type: binding, human; set-up: Binding of Control serum LUMC to linear peptides / Binding of Control serum Blood-bank to linear peptides / Binding of Control serum LUMC to looped peptides / Binding of Control Serum Blood-Bank to Looped peptides / Binding of Control serum LUMC to linear peptides of the protein M of SARS-CoV Urbani / Binding of Control serum Blood-bank to linear peptides of the protein M of SARS-CoV Urbani / Binding of Control serum LUMC to looped peptides of the protein M of SARS-CoV Urbani / Binding of Control Serum Blood-Bank to Looped peptides of the protein M of SARS-CoV Urbani: unit not given here
[2] = system: rabbit serum obtained by immunizing a rabbit with the SARS-CoV strain Frankfurt 1; assay type: binding; set-up: Binding of a rabbit serum to linear peptides / Binding of a rabbit serum to looped peptides / Rabbit serum linear peptides / Rabbit serum looped peptides / Binding of a rabbit serum to linear peptides of protein N of SARS-CoV Urbani (Rabbit serum linear peptides) / Binding of a rabbit serum to looped/cyclic peptides of protein N of SARS-CoV Urbani (Rabbit serum looped peptides): unit not given here
[3] = system: antibodies in sera from SARS patients (sera 1a, 1b, 2, 6, 37, 62, London, SARS-yellow, SARS-green); assay type: binding, human; set-up: Binding of serum 6 to linear peptides of protein X1 of SARS-CoV Urbani / Binding of serum 37 to linear peptides of protein X1 of SARS-CoV Urbani / Binding of serum 6 to looped/cyclic peptide (PEPSCAN-ELISA) / Binding of serum 37 to looped/cyclic peptide (PEPSCAN-ELISA) / Binding of serum 37 to looped/cyclic peptides of protein X1 of SARS-CoV Urbani / Binding of serum 6 to linear peptides of protein X2 / Binding of serum 37 to linear peptides of protein X2 / Binding of serum 37 to looped/cyclic peptides of protein X2 of SARS-CoV Urbani / Binding of serum 6 to linear peptides of protein M of SARS-CoV Urbani / Binding of serum 37 to linear peptides of protein M of SARS-CoV Urbani / Binding of serum 6 to looped/cyclic peptides of protein M of SARS-CoV Urbani / Binding of serum 37 to looped/cyclic peptides of protein M of SARS-CoV Urbani / Binding of serum 6 to linear peptides of protein X3 of SARS-CoV Urbani / Binding of serum 37 to linear peptides of protein X3 of SARS-CoV Urbani / Binding of serum 37 to looped/cyclic peptides of protein X3 of SARS-CoV Urbani / Binding of serum 6 to linear peptides of protein X4 of SARS-CoV Urbani / Binding of serum 37 to linear peptides of protein X4 of SARS-CoV Urbani / Binding of serum 37 to looped/cyclic peptides of protein X4 of SARS-CoV Urbani / Binding of serum 6 to linear peptides of protein X5 of SARS-CoV Urbani / Binding of serum 37 to linear peptides of protein X5 of SARS-CoV Urbani / Binding of serum 37 to looped/cyclic peptides of protein X5 of SARS-CoV Urbani / Binding of serum 6 to linear peptides of protein N of SARS-CoV Urbani / Binding of serum 37 to linear peptides of protein N of SARS-CoV Urbani / Binding of serum 6 to linear peptide (PEPSCAN-ELISA) / Binding of serum 1a to looped/cyclic peptides of protein N of SARS-CoV Urbani / Binding of serum 1b to looped/cyclic peptides of protein N of SARS-CoV Urbani / Binding of serum 2 to looped/cyclic peptides of protein N of SARS-CoV Urbani / Binding of serum 6 to looped/cyclic peptides of protein N of SARS-CoV Urbani / Binding of serum 37 to looped/cyclic peptides of protein N of SARS-CoV Urbani / Binding of serum 62 to looped/cyclic peptides of protein N of SARS-CoV Urbani / Binding of serum London to looped/cyclic peptides of protein N of SARS-CoV Urbani / Binding of serum SARS-green to looped/cyclic peptides of protein N of SARS-CoV Urbani: unit not given here
[4] = system: recombinant human anti-SARS-CoV antibody 03-018; assay type: binding; set-up: Binding of antibody 03-018 to linear peptides of the N protein of SARS-CoV Urbani / Binding of antibody 03-018 to looped/cyclic peptides of the N protein of SARS-CoV Urbani: unit not given here

LLLLDRLNQLESKVS
Binding of Control Serum Blood-Bank to Looped peptides [1]: 0.4
Binding of Control serum Blood-bank to linear peptides [1]: 0.7
Binding of Control serum LUMC to linear peptides [1]: 0.6
Binding of Control serum LUMC to looped peptides [1]: 0.4
Binding of a rabbit serum to linear peptides of protein N of SARS-CoV Urbani (Rabbit serum linear peptides) [2]: 0.1
Binding of a rabbit serum to looped/cyclic peptides of protein N of SARS-CoV Urbani (Rabbit serum looped peptides) [2]: 0.0
Binding of serum 1a to linear peptide (PEPSCAN-ELISA) [3]: 0.2
Binding of serum 1a to looped/cyclic peptides of protein N of SARS-CoV Urbani [3]: 0.2
Binding of serum 1b to linear peptide (PEPSCAN-ELISA) [3]: 0.1
Binding of serum 1b to looped/cyclic peptides of protein N of SARS-CoV Urbani [3]: 0.1
Binding of serum 2 to linear peptide (PEPSCAN-ELISA) [3]: 0.2
Binding of serum 2 to looped/cyclic peptides of protein N of SARS-CoV Urbani [3]: 0.2
Binding of serum 6 to linear peptide (PEPSCAN-ELISA) [3]: 0.1
Binding of serum 6 to looped/cyclic peptides of protein N of SARS-CoV Urbani [3]: 0.1
Binding of serum 37 to linear peptide (PEPSCAN-ELISA) [3]: 0.7
Binding of serum 37 to looped/cyclic peptides of protein N of SARS-CoV Urbani [3]: 0.4
Binding of serum 62 to linear peptide (PEPSCAN-ELISA) [3]: 0.4
Binding of serum 62 to looped/cyclic peptides of protein N of SARS-CoV Urbani [3]: 0.2
Binding of serum London to linear peptide (PEPSCAN-ELISA) [3]: 0.7
Binding of serum London to looped/cyclic peptides of protein N of SARS-CoV Urbani [3]: 0.3
Binding of serum SARS-green to linear peptide (PEPSCAN-ELISA) [3]: 0.4
Binding of serum SARS-green to looped/cyclic peptides of protein N of SARS-CoV Urbani [3]: 0.2
Binding of serum SARS-yellow to linear peptide (PEPSCAN-ELISA) [3]: 0.4
Binding of serum SARS-yellow to looped/cyclic peptides of protein N of SARS-CoV Urbani [3]: 0.0
Binding of antibody 03-018 to linear peptides of the N protein of SARS-CoV Urbani [4]: 0.2
Binding of antibody 03-018 to looped/cyclic peptides of the N protein of SARS-CoV Urbani [4]: 0.2

LLNKHIDAYKTFPPT
Control Serum Blood-Bank Looped peptides [1]: 0.5
Control serum Blood-bank linear peptides [1]: 0.6
Control serum LUMC linear peptides [1]: 0.7
Control serum LUMC looped peptides [1]: 0.5
Binding of a rabbit serum to linear peptides of protein N of SARS-CoV Urbani (Rabbit serum linear peptides) [2]: 0.2
Binding of a rabbit serum to looped/cyclic peptides of protein N of SARS-CoV Urbani (Rabbit serum looped peptides) [2]: 0.4
Binding of serum 1a to linear peptides of protein N of SARS-CoV Urbani [3]: 0.2
Binding of serum 1a to looped/cyclic peptides of protein N of SARS-CoV Urbani [3]: 0.3
Binding of serum 1b to linear peptides of protein N of SARS-CoV Urbani [3]: 0.1
Binding of serum 1b to looped/cyclic peptides of protein N of SARS-CoV Urbani [3]: 0.1
Binding of serum 2 to linear peptides of protein N of SARS-CoV Urbani [3]: 0.2
Binding of serum 2 to looped/cyclic peptides of protein N of SARS-CoV Urbani [3]: 0.3
Binding of serum 6 to linear peptides of protein N of SARS-CoV Urbani [3]: 0.2
Binding of serum 6 to looped/cyclic peptides of protein N of SARS-CoV Urbani [3]: 0.2
Binding of serum 37 to linear peptides of protein N of SARS-CoV Urbani [3]: 0.7
Binding of serum 37 to looped/cyclic peptides of protein N of SARS-CoV Urbani [3]: 0.4
Binding of serum 62 to linear peptides of protein N of SARS-CoV Urbani [3]: 0.6
Binding of serum 62 to looped/cyclic peptides of protein N of SARS-CoV Urbani [3]: 0.3
Binding of serum London to linear peptides of protein N of SARS-CoV Urbani [3]: 0.5
Binding of serum London to looped/cyclic peptides of protein N of SARS-CoV Urbani [3]: 0.3
Binding of serum SARS-green to linear peptides of protein N of SARS-CoV Urbani [3]: 0.5
Binding of serum SARS-green to looped/cyclic peptides of protein N of SARS-CoV Urbani [3]: 0.3
Binding of serum SARS-yellow to linear peptides of protein N of SARS-CoV Urbani [3]: 0.6
Binding of serum SARS-yellow to looped/cyclic peptides of protein N of SARS-CoV Urbani [3]: 0.4
Binding of antibody 03-018 to linear peptides of the N protein of SARS-CoV Urbani [4]: 0.1
Binding of antibody 03-018 to looped/cyclic peptides of the N protein of SARS-CoV Urbani [4]: 0.2

LPQRQKKQPTVTLLP
Control Serum Blood-Bank Looped peptides [1]: 0.8
Control serum Blood-bank linear peptides [1]: 0.8
Control serum LUMC linear peptides [1]: 0.7
Control serum LUMC looped peptides [1]: 0.7
Binding of a rabbit serum to linear peptides of protein N of SARS-CoV Urbani (Rabbit serum linear peptides) [2]: 0.2
Binding of a rabbit serum to looped/cyclic peptides of protein N of SARS-CoV Urbani (Rabbit serum looped peptides) [2]: 0.7
Binding of serum 1a to linear peptides of protein N of SARS-CoV Urbani [3]: 0.2
Binding of serum 1b to linear peptides of protein N of SARS-CoV Urbani [3]: 0.2
Binding of serum 2 to linear peptides of protein N of SARS-CoV Urbani [3]: 0.3
Binding of serum 6 to linear peptides of protein N of SARS-CoV Urbani [3]: 0.1
Binding of serum 37 to linear peptides of protein N of SARS-CoV Urbani [3]: 0.7
Binding of serum 62 to linear peptides of protein N of SARS-CoV Urbani [3]: 0.7
Binding of serum London to linear peptides of protein N of SARS-CoV Urbani [3]: 0.5
Binding of serum SARS-green to linear peptides of protein N of SARS-CoV Urbani [3]: 0.4
Binding of serum SARS-yellow to linear peptides of protein N of SARS-CoV Urbani [3]: 0.7
Recognition of the peptide by sera of SARS-CoV infected individuals, and form (linear, looped/cyclic) in which it is recognized [3]: recognized in looped/cyclic form
Binding of antibody 03-018 to linear peptides of the N protein of SARS-CoV Urbani [4]: 0.1
Binding of antibody 03-018 to looped/cyclic peptides of the N protein of SARS-CoV Urbani [4]: 0.3

LPYGANKEGIVWVAT
Binding of Control Serum Blood-Bank to Looped peptides [1]: 0.5
Binding of Control serum Blood-bank to linear peptides [1]: 0.7
Binding of Control serum LUMC to linear peptides [1]: 0.6
Binding of Control serum LUMC to looped peptides [1]: 0.6
Binding of a rabbit serum to linear peptides of protein N of SARS-CoV Urbani (Rabbit serum linear peptides) [2]: 0.2
Binding of a rabbit serum to looped/cyclic peptides of protein N of SARS-CoV Urbani (Rabbit serum looped peptides) [2]: 0.6
Binding of serum 1a to linear peptides of protein N of SARS-CoV Urbani [3]: 0.2
Binding of serum 1a to looped/cyclic peptides of protein N of SARS-CoV Urbani [3]: 0.5
Binding of serum 1b to linear peptides of protein N of SARS-CoV Urbani [3]: 0.2
Binding of serum 1b to looped/cyclic peptides of protein N of SARS-CoV Urbani [3]: 0.3
Binding of serum 2 to linear peptides of protein N of SARS-CoV Urbani [3]: 0.3
Binding of serum 2 to looped/cyclic peptides of protein N of SARS-CoV Urbani [3]: 0.6
Binding of serum 6 to linear peptides of protein N of SARS-CoV Urbani [3]: 0.2
Binding of serum 6 to looped/cyclic peptides of protein N of SARS-CoV Urbani [3]: 0.4
Binding of serum 37 to linear peptides of protein N of SARS-CoV Urbani [3]: 0.7
Binding of serum 37 to looped/cyclic peptides of protein N of SARS-CoV Urbani [3]: 0.9
Binding of serum 62 to linear peptides of protein N of SARS-CoV Urbani [3]: 0.7
Binding of serum 62 to looped/cyclic peptides of protein N of SARS-CoV Urbani [3]: 0.8
Binding of serum London to linear peptides of protein N of SARS-CoV Urbani [3]: 0.5
Binding of serum London to looped/cyclic peptides of protein N of SARS-CoV Urbani [3]: 0.5
Binding of serum SARS-green to linear peptides of protein N of SARS-CoV Urbani [3]: 0.3
Binding of serum SARS-green to looped/cyclic peptides of protein N of SARS-CoV Urbani [3]: 0.4
Binding of serum SARS-yellow to linear peptides of protein N of SARS-CoV Urbani [3]: 0.6
Binding of serum SARS-yellow to looped/cyclic peptides of protein N of SARS-CoV Urbani [3]: 0.4
Binding of antibody 03-018 to linear peptides of the N protein of SARS-CoV Urbani [4]: 0.1
Binding of antibody 03-018 to looped/cyclic peptides of the N protein of SARS-CoV Urbani [4]: 0.2
